These results are taken from ChEMBL document CHEMBL1201862, “PubChem BioAssay data set” (2004).

Common to all, as to type: functional
One experiment addresses T1, Caspase-3 (Homo sapiens, UniProt P42574).
T1 sequence (P42574 whole entry): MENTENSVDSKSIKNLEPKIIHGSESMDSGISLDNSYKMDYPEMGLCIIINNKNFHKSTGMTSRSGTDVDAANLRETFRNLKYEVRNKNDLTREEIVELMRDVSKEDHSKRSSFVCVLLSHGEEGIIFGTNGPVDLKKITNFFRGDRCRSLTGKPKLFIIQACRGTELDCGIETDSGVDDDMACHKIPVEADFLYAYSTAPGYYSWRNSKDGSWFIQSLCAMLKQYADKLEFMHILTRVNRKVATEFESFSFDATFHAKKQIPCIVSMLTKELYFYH

The target in experiment [1] is T2, Sentrin-specific protease 7 (Homo sapiens, UniProt Q9BQF6).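 Further: Luminescence-based dose-response confirmation of ultra-high-throughput screening hits, measuring inhibition of SENP7.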
T2 sequence (Q9BQF6 whole entry): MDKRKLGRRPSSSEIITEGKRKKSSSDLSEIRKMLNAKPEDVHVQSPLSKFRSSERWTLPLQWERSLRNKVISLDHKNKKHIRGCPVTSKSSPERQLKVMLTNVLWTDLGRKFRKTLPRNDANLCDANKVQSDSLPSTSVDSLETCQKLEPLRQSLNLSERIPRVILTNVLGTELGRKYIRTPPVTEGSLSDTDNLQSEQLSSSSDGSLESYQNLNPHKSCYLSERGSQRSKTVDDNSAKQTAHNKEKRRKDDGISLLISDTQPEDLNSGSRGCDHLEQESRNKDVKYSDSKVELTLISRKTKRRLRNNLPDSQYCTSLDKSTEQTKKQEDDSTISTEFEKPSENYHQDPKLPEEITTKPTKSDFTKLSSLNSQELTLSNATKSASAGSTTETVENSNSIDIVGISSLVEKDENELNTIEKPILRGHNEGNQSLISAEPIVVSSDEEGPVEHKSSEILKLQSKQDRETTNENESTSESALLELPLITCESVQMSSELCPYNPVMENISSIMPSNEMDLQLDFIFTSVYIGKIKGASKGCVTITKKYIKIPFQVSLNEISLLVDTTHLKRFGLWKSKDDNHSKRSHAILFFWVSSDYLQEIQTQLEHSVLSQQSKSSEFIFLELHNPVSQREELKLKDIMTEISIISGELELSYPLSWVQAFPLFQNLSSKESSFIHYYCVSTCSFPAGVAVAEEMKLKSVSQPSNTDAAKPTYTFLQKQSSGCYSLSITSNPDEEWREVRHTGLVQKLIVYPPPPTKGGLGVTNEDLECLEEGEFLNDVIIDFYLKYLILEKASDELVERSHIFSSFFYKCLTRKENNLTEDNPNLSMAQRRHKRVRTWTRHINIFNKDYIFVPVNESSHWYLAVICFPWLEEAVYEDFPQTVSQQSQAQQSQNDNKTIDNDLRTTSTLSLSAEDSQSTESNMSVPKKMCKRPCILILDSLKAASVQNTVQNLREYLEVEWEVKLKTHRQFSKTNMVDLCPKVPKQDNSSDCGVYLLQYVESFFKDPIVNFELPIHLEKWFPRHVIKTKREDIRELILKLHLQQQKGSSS

The next experiment has as its target T3, Protein RecA (Mycobacterium tuberculosis, UniProt P9WHJ3).
T3 sequence (P9WHJ3 whole entry): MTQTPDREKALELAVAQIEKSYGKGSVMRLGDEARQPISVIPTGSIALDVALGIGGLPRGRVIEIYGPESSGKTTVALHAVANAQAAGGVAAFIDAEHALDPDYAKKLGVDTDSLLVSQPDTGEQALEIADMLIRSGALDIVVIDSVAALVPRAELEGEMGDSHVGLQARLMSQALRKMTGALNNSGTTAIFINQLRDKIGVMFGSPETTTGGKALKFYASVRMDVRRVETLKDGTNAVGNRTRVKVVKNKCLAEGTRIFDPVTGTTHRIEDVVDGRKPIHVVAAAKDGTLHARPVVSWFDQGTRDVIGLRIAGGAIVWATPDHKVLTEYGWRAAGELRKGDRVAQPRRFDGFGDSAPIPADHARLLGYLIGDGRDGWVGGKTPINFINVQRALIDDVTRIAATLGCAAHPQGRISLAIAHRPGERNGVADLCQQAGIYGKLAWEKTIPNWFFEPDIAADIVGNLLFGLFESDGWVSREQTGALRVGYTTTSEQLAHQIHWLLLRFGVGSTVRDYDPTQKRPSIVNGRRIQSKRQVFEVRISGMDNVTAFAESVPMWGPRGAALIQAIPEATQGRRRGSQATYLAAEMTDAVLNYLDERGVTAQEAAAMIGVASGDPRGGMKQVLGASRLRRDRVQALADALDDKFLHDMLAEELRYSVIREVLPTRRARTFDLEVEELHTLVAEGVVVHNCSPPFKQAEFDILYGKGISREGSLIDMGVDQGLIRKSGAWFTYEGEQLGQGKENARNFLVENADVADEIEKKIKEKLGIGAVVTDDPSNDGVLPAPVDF
Put plainly: Fluorescence Cell-Free Homogeneous Dose Retest to Identify Inhibitors of RecA-Intein Splicing Activity. [Related pubchem assays (depositor defined):AID2097, AID2223, AID489010, AID492950].

Molecules are shown by their SMILES. The source made the active and inactive calls. For most assays here, no stated cut-off is given here; in the data, actives have a measured IC50 and inactives only a lower limit.

Usually IC50 stands for the concentration that inhibits the measured activity by half. `c1ccc2c(Nc3nnc(-c4ccncc4)s3)cccc2c1`: the values for the IC50 (at Caspase-3; in experiment [1]) were 18.5 µM (active) and 5.51 µM (active), respectively.
What is called EC50 is the concentration giving half of the maximal effect. In the case of `N#Cc1c(O)nc(SCC(=O)N2c3ccccc3Sc3ccccc32)nc1-c1ccccc1`, on Protein RecA, the EC50 was 9.18 µM (active).
Take `COc1cc(C(=O)c2nccc3cc(OC)c(OC)cc23)c([N+](=O)[O-])cc1OC`: the IC50 at Caspase-3 is 31.9 µM (active); in experiment [1], 2.93 µM (active). Moreover, the 50% effective concentration (EC50) at Protein RecA was 0.16 µM (active).
